Test results taken from US20240197938A1, “ANTIMICROBIAL COMPOUNDS BASED ON GLUCOHEPTONIC ACIDS AND THEIR SALTS” (HARCROS CHEMICALS, INC., priority 2021, published 2024).

Columns and labels:
[1] = Bubble pressure tensiometry (dynamic surface tension, calculated CMC); format: physicochemical; conditions: for Calculated CMC: bubble tensiometry
Method: Dynamic surface tensions of certain formulations were measured using a KRÜSS BP100 BPT Mobile bubble pressure tensiometer. Samples of the solution of Example 7 were tested by adding the test solution to a glass dish and lowering the disposable capillary tip and temperature probe into the solution. The dynamic setting was selected, and the instrument was set to collect 30 data points, the bubble age increasing from about 10 ms to about 30,000 ms.
Bubble tensiometry was used to calculate the Critical Micelle Concentration (CMC) value for each of the solutions.
FIG. 1 presents a comparison of the bubble age to surface tension for RM14A at CMC, sub-CMC, and super-CMC concentrations. FIG. 2 presents a comparison of the bubble age to surface tension for RM14B at CMC, sub-CMC, and super-CMC concentrations. FIG. 3 presents a comparison of the bubble age to surface tension for RM14C at CMC, sub-CMC, and super-CMC concentrations. FIG. 4 presents a comparison of the bubble age to surface tension for RM12A, RM13A, RM14A, and RM15A at super-CMC concentrations. FIG. 5 presents a comparison of the bubble age to surface tension for RM12A, RM13A, RM14A, and RM15A at CMC concentrations. FIG. 6 presents a comparison of the bubble age to surface tension for RM12A, RM13A, RM14A, and RM15A at CMC concentrations. FIG. 7 presents a comparison of bubble age to surface tension for RM12A, RM13A, RM14A, and RM15A at sub-CMC concentrations.

[2] = Conductivity testing (calculated CMC); format: physicochemical; conditions: for Calculated CMC, All Points: all data points; for Calculated CMC, Average: average of outer, inner, all points; for Calculated CMC, Inner Points: inner data points; for Calculated CMC, Outer Points: outer data points
Method: Conductivities were measured using a VWR 23609-216 Pure H2O Tester conductivity meter. The meter probe was submerged into the test solution and swirled gently. Once the meter settled, the value was recorded.
The conductivity of the solutions of Example 7 were tested at dilutions ranging from 0.1 M to 0.001 M. The data was plotted on a logarithmic scale and analyzed in the style of Heard and Ashworth. For each sample, three graphs were reported and fitted with a trend curve: outer data points, inner data points, all data points. […] An average CMC value was determined from the three trend samples (outer data points, inner data points, all data points) in order to more accuracy predict the CMC value.
LINEST was utilized to determine the slope and intercept for each line, and a combination of INTERCEPT and SLOPE was used to determine the intersection of the two fitted lines. The Critical Micelle Concentration (CMC) was determined for each of these plots by the intercept of the two lines. Set forth below in Table 5 is the calculated CMC for each graph and the average CMC.

[3] = test system: all microbes (Candida albicans, Staphylococcus aureus, Staphylococcus epidermidis, Escherichia coli, Salmonella abony, Listeria monocytogenes); test: ASTM E2315-16 Time-Kill Procedure, average across all microbes; format: cell-based; conditions: for Log Reduction, Average, all microbes: 30 seconds; for log reduction, Average, all microbes: 10 minutes
Method: (§1) Select compounds were tested for antimicrobial activity using ASTM method […]-16 (Standard Guide for Assessment of Antimicrobial Activity using a Time-Kill Procedure). Six microbes were tested: Candida albicans, Staphylococcus aureus, Staphylococcus epidermidis. Escherichia coli, Salmonella abony, and Listeria monocytogenes. Four chlorhexidine salts were tested: chlorhexidine di-α-glucoheptonate (Sample G), chlorhexidine di-β73-glucoheptonate (Sample H), chlorhexidine digluconate (Sample I), and chlorhexidine diacetate (Sample P). Both chlorhexidine diglucoheptonate salts were prepared at a 2:1 molar ratio of glucoheptonic acid to chlorhexidine. Dilutions of each salt were prepared using sterile water (20-30 ppm hardness), to achieve the desired wt. % concentration. Samples G, H, I, and P were also tested at a concentration of 0.60 wt % active and evaluated for the average Log Reduction in microbial population at 10 minutes, across all microbes. A further test was conducted at a concentration of 1.0 wt % active and evaluated for the average Log Reduction in microbial population at 10 minutes, across all microbes. Benzalkonium salts were also tested using the same procedure as set forth in Example 13. The samples were benzalkonium chloride (C12-C16) (Sample C), benzalkonium chloride (C12-C14) (Sample D), benzalkonium chloride in combination with a stoichiometric amount of α-glucoheptonate (Sample F), and benzalkonium chloride in combination with a molar excess of α-glucoheptonate (Sample N). Sample F was prepared by mixing and extensively heating a stoichiometric quantity (1:1) of sodium α-glucoheptonate with benzalkonium chloride, typified by the C12-14 alkyl chain. Sample N was prepared by simply blending benzalkonium chloride, typified by the C12-16 chain, with a molar excess of sodium α-glucoheptonate (1.6:1). Both Samples F and N contain sodium chloride. A further antimicrobial test was conducted to determine the log reduction at 10 minutes. Samples C, D, F, and N are as defined above.

Escherichia coli = test: ASTM E2315-16 Time-Kill Procedure; format: cell-based; conditions: for Log Reduction: 30 seconds; for log reduction: 10 minutes
Method: as §1, with “concentration.” for “concentration. Samples G, H, I, and P were also tested at a concentration of 0.60 wt % active and evaluated for the average Log Reduction in microbial population at 10 minutes, across all microbes. A further test was conducted at a concentration of 1.0 wt % active and evaluated for the average Log Reduction in microbial population at 10 minutes, across all microbes.”, “chloride.” for “chloride. A further antimicrobial test was conducted to determine the log reduction at 10 minutes. Samples C, D, F, and N are as defined above.”

Salmonella abony = test: ASTM E2315-16 Time-Kill Procedure; format: cell-based; conditions: for Log Reduction: 30 seconds; for log reduction: 10 minutes
Method: as §1, with “concentration.” for “concentration. Samples G, H, I, and P were also tested at a concentration of 0.60 wt % active and evaluated for the average Log Reduction in microbial population at 10 minutes, across all microbes. A further test was conducted at a concentration of 1.0 wt % active and evaluated for the average Log Reduction in microbial population at 10 minutes, across all microbes.”, “chloride.” for “chloride. A further antimicrobial test was conducted to determine the log reduction at 10 minutes. Samples C, D, F, and N are as defined above.”

Listeria monocytogenes = test: ASTM E2315-16 Time-Kill Procedure; format: cell-based; conditions: for Log Reduction: 30 seconds; for log reduction: 10 minutes
Method: as §1, with “concentration.” for “concentration. Samples G, H, I, and P were also tested at a concentration of 0.60 wt % active and evaluated for the average Log Reduction in microbial population at 10 minutes, across all microbes. A further test was conducted at a concentration of 1.0 wt % active and evaluated for the average Log Reduction in microbial population at 10 minutes, across all microbes.”, “chloride.” for “chloride. A further antimicrobial test was conducted to determine the log reduction at 10 minutes. Samples C, D, F, and N are as defined above.”

Candida albicans = test: ASTM E2315-16 Time-Kill Procedure; format: cell-based; conditions: for Log Reduction: 30 seconds; for log reduction: 10 minutes
Method: (§2) Select compounds were tested for antimicrobial activity using ASTM method […]-16 (Standard Guide for Assessment of Antimicrobial Activity using a Time-Kill Procedure). Six microbes were tested: Candida albicans, Staphylococcus aureus, Staphylococcus epidermidis. Escherichia coli, Salmonella abony, and Listeria monocytogenes. Four chlorhexidine salts were tested: chlorhexidine di-α-glucoheptonate (Sample G), chlorhexidine di-β73-glucoheptonate (Sample H), chlorhexidine digluconate (Sample I), and chlorhexidine diacetate (Sample P). Both chlorhexidine diglucoheptonate salts were prepared at a 2:1 molar ratio of glucoheptonic acid to chlorhexidine. Dilutions of each salt were prepared using sterile water (20-30 ppm hardness), to achieve the desired wt. % concentration. Two glucoheptonic acids were evaluated for antimicrobial activity against the same six microbes as Example 13. Sample L was α-glucoheptonic acid. Sample M was β73-glucoheptonic acid. Benzalkonium salts were also tested using the same procedure as set forth in Example 13. The samples were benzalkonium chloride (C12-C16) (Sample C), benzalkonium chloride (C12-C14) (Sample D), benzalkonium chloride in combination with a stoichiometric amount of α-glucoheptonate (Sample F), and benzalkonium chloride in combination with a molar excess of α-glucoheptonate (Sample N). Sample F was prepared by mixing and extensively heating a stoichiometric quantity (1:1) of sodium α-glucoheptonate with benzalkonium chloride, typified by the C12-14 alkyl chain. Sample N was prepared by simply blending benzalkonium chloride, typified by the C12-16 chain, with a molar excess of sodium α-glucoheptonate (1.6:1). Both Samples F and N contain sodium chloride.

Staphylococcus aureus = test: ASTM E2315-16 Time-Kill Procedure; format: cell-based; conditions: for Log Reduction: 30 seconds; for log reduction: 10 minutes
Method: as §2

[4] = test system: Staphylococcus epidermidis; test: ASTM E2315-16 Time-Kill Procedure; format: cell-based; conditions: for Log Reduction: 30 seconds; for log reduction: 10 minutes
Method: as §2

## N=C(NCCCCCCNC(=N)NC(=N)Nc1ccc(Cl)cc1)NC(=N)Nc1ccc(Cl)cc1.O=C(O)[C@H](O)[C@@H](O)[C@H](O)[C@H](O)CO.O=C(O)[C@H](O)[C@@H](O)[C@H](O)[C@H](O)CO [RM12A, Chlorhexidine digluconate]
[1]
  Calculated CMC: 0.0168 M
[2]
  Calculated CMC, All Points: 0.0133 M
  Calculated CMC, Average: 0.0126 M
  Calculated CMC, Inner Points: 0.0128 M
  Calculated CMC, Outer Points: 0.0118 M

## N=C(NCCCCCCNC(=N)NC(=N)Nc1ccc(Cl)cc1)NC(=N)Nc1ccc(Cl)cc1.O=C(O)[C@H](O)[C@@H](O)[C@H](O)[C@H](O)CO.O=C(O)[C@H](O)[C@@H](O)[C@H](O)[C@H](O)CO [RM12B, Chlorhexidine digluconate]
[1]
  Calculated CMC: 0.0195 M
[2]
  Calculated CMC, All Points: 0.0133 M
  Calculated CMC, Average: 0.0127 M
  Calculated CMC, Inner Points: 0.0131 M
  Calculated CMC, Outer Points: 0.0117 M

## N=C(NCCCCCCNC(=N)NC(=N)Nc1ccc(Cl)cc1)NC(=N)Nc1ccc(Cl)cc1.O=C(O)[C@H](O)[C@@H](O)[C@H](O)[C@H](O)CO.O=C(O)[C@H](O)[C@@H](O)[C@H](O)[C@H](O)CO [RM12C, Chlorhexidine digluconate]
[1]
  Calculated CMC: 0.0195 M
[2]
  Calculated CMC, All Points: 0.0133 M
  Calculated CMC, Average: 0.0131 M
  Calculated CMC, Inner Points: 0.0143 M
  Calculated CMC, Outer Points: 0.0116 M

## N=C(NCCCCCCNC(=N)NC(=N)Nc1ccc(Cl)cc1)NC(=N)Nc1ccc(Cl)cc1.O=C(O)C(O)C(O)C(O)C(O)C(O)CO.O=C(O)C(O)C(O)C(O)C(O)C(O)CO [RM13A, Chlorhexidine di-α-glucoheptonate]
[1]
  Calculated CMC: 0.0200 M
[2]
  Calculated CMC, All Points: 0.0132 M
  Calculated CMC, Average: 0.0123 M
  Calculated CMC, Inner Points: 0.0122 M
  Calculated CMC, Outer Points: 0.0115 M

## N=C(NCCCCCCNC(=N)NC(=N)Nc1ccc(Cl)cc1)NC(=N)Nc1ccc(Cl)cc1.O=C(O)C(O)C(O)C(O)C(O)C(O)CO.O=C(O)C(O)C(O)C(O)C(O)C(O)CO [RM13B, Chlorhexidine di-α-glucoheptonate]
[1]
  Calculated CMC: 0.0167 M
[2]
  Calculated CMC, All Points: 0.0132 M
  Calculated CMC, Average: 0.0126 M
  Calculated CMC, Inner Points: 0.0131 M
  Calculated CMC, Outer Points: 0.0116 M

## N=C(NCCCCCCNC(=N)NC(=N)Nc1ccc(Cl)cc1)NC(=N)Nc1ccc(Cl)cc1.O=C(O)C(O)C(O)C(O)C(O)C(O)CO.O=C(O)C(O)C(O)C(O)C(O)C(O)CO [RM15, chlorhexidine di-β81-glucoheptonate]
[1]; sub-CMC, CMC and super-CMC concentrations, FIGS. 1-7
  surface tension versus bubble age (rate and magnitude of reduction): fall more rapidly and to a lower value than either the di-α-glucoheptonate or the comparative digluconate salt

## benzalkonium chloride (C12-C16) [Sample C]
[3]; 0.10%
  Log Reduction, Average, all microbes: 3.54
  log reduction, Average, all microbes: 5.21
[3]; 0.25%
  Log Reduction, Average, all microbes: 3.76
  log reduction, Average, all microbes: 5.51
[3]; 0.50%
  Log Reduction, Average, all microbes: 3.91
  log reduction, Average, all microbes: 5.35
Escherichia coli; 0.10%
  Log Reduction: 3.01
  log reduction: 4.59
Escherichia coli; 0.25%
  Log Reduction: 3.29
  log reduction: 5.07
Escherichia coli; 0.50%
  Log Reduction: 3.52
  log reduction: 5.07
Salmonella abony; 0.10%
  Log Reduction: 3.04
  log reduction: 4.44
Salmonella abony; 0.25%
  Log Reduction: 3.34
  log reduction: 4.50
Salmonella abony; 0.50%
  Log Reduction: 3.39
  log reduction: 4.50
Listeria monocytogenes; 0.10%
  Log Reduction: 3.72
  log reduction: 5.60
Listeria monocytogenes; 0.25%
  Log Reduction: 3.87
  log reduction: 5.99
Listeria monocytogenes; 0.50%
  Log Reduction: 3.99
  log reduction: 6.02
Candida albicans; 0.10%
  Log Reduction: 4.18
  log reduction: 5.95
Candida albicans; 0.25%
  Log Reduction: 4.35
  log reduction: 6.35
Candida albicans; 0.50%
  Log Reduction: 4.56
  log reduction: 6.43
Staphylococcus aureus; 0.10%
  Log Reduction: 3.89
  log reduction: 5.86
Staphylococcus aureus; 0.25%
  Log Reduction: 4.19
  log reduction: 6.07
Staphylococcus aureus; 0.50%
  Log Reduction: 4.37
  log reduction: 5.05
[4]; 0.10%
  Log Reduction: 3.39
  log reduction: 4.79
[4]; 0.25%
  Log Reduction: 3.50
  log reduction: 5.05
[4]; 0.50%
  Log Reduction: 3.65
  log reduction: 5.05
